The results in this text go back to PMC7381729, “A new class of PentixaFor- and PentixaTher-based theranostic agents with enhanced CXCR4-targeting efficiency” (Theranostics, 2020).

The term IC50 denotes the point on the concentration scale where inhibition reaches its midpoint.

Data set [1] is described as follows: Small animal PET imaging in Daudi xenograft bearing mice. It counts as in vivo. As to conditions: CB17 SCID, mouse, iv, total radioactivity, 90 min p.i., dynamic PET, ROI analysis, n=1 per compound. Here is the method: (§1) Small aminal PET imaging studies were performed using a Siemens Inveon PET scanner. Animals were anesthetized with isoflurane and injected via the tail vein with 10 to 15 MBq (0.1 nmol) of the respective tracer. Dynamic imaging (n=1 per compound) was performed after on-bed injection for 1.5 h, and static images (n=1 per compound) were acquired at 1 h p.i. with an acquisition time of 15 min. Data analysis was performed using the Inveon Research Workplace software. Images were reconstructed using a 3D ordered-subsets expectation maximum (OSEM3D) algorithm without scanner and attenuation correction. Time-activity curves (Figure 4) were obtained by generating isocontour regions of interest (ROI) for the tumor and the heart content (as a surrogate for blood activity), as well as by defining two spherical ROIs (each 23.4 mm^3) in the thigh area (muscle) and areas of homogenous tracer uptake in the liver, followed by plotting of average activity ± SD per volume in these ROIs over time.  Figure 4 Results from small animal PET imaging using [^68Ga]PentixaFor (top row), [^68Ga]DOTA-r-a-ABA-CPCR4 (middle row) and [^68Ga]DOTA-r-a-ABA-iodoCPCR4 (bottom row) in Daudi xenograft bearing CB17 SCID mice. Images on the left (MIP) were obtained by static imaging (1h p.i., n=1), the time activity curves (TAC) on the right were acquired by dynamic PET imaging (0-90 min p.i., n=1).

In data set [2] the test system is Daudi xenograft bearing CB17 SCID mice. The description is as above. The conditions noted are these: mouse, in vivo. Type of data set: in vivo. Here is the method:
as §1

Another data set addresses T1, murine CXCR4 (mCXCR4) (Mus musculus, UniProt P70658).
T1 construct: mCXCR4-expressing Eµ-Myc1080 mouse B-cell lymphoma cells; endogenous in cells; host or cells: Eµ-Myc1080 mouse B-cell lymphoma cells (whole cells)
Put plainly: Competition binding to mCXCR4, Eµ-myc 1080 mouse lymphoma cells, [125I]CPCR4.3 as radioligand. The conditions noted are these: Eµ-myc 1080 mouse lymphoma cells 200.000 cells/sample, means ± SD of min. three separate experiments. Here is the method:
Experiments were performed in triplicate with n=3 per concentration in each experiment. IC50 values were calculated using GraphPad Prism 6.01 (Graph Pad Software, San Diego, USA).

For data set [3], the system named is Daudi (human B-cell lymphoma) xenograft bearing CB-17 SCID mice. Put plainly: Biodistribution in Daudi xenograft bearing mice. It counts as in vivo, mouse. The conditions noted are these: for Initial activity retained in the Daudi xenografts after 48h: 48h p.i. relative to early time point. A digest of the protocol: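 Female CB-17 SCID mice with Daudi xenografts (n=4-5) received 5-10 MBq (0.08-0.11 nmol) ^68Ga- or ^177Lu-labelled ligand i.v.; blocking by coinjected 50 µg AMD3100. Organs counted by γ-counter at 1, 6 and 48 h p.i.; %ID/g (mean ± SD).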

Data set [4] is described as follows: Lipophilicity, modified shake-flask method. The conditions noted are these: O/PBS, radiolabeled compound, means ± SD (n=6). Type of data set: physicochemical. The procedure: The lipophilicity (log PO/PBS) of the ^68Ga- and ^177Lu-labeled compounds in this study was determined via a modified shake-flask method.
The nature of data set [5]: In vivo metabolite analysis (radio-HPLC). As to conditions: CB17 SCID mice, 0.5h p.i., i.v. app. 35 MBq; radio-HPLC of extracts. Also noted: species or system mouse. The procedure: 68Ga-labeling was performed as published previously using a 68Ge/68Ga generator (iTHEMBA Labs, South Africa) and a GallElut + synthesis module (SCINTOMICS GmbH, Germany). Usually, 5 nmol of precursor peptide were used, yielding the 68Ga-labeled peptides in specific activities of 100 to 120 […]
For 177Lu-labeling, the peptides were dissolved in water to yield a 1 mM solution. Of this solution, the required volume was added to 177LuCl3 in 0.04 M HCl (ITG/ITM, Garching, Germany; activity concentration: 370 MBq/500 µl) to achieve a peptide-to -177Lu-activity ratio of 1 nmol peptide per 225 MBq 177LuCl3. To this mixture, 1 M NH4OAc was added (calculated to be 10% of total reaction volume), and the mixture was heated to 90°C for 4 0 min. […]
Human glioma U87 cells overexpressing CD4 and CXCR4 (U87CD4CXCR4) cells were kept in cultivation at least one week before starting the experiment. […] Perkin-Elmer’s LANCE cAMP assay kit (catalog #AD0262) based on time-resolved fluorescence resonance energy transfer (TR -FRET) was utilized to determine the ability of [natLu]DOTA -r -a -ABA -iodo CPCR4 and [ natLu]PentixaTher vs the reference CXCL12 to inhibit cAMP production induced by 5 µM Forskolin. […]
(15,000 g), and the supernatants were subjected to ultrafiltration. […] The blood extract was also analyzed by radio-HPLC. For all extracts the ex traction efficiency was determined in a ɣ -counter.

The mark [6] stands for this setting: 1h p.i., tracer only, i.v., γ-counter, means ± SD, n=4-5 (68Ga: n=4).

Read-outs that look alike come from different tables or passages of the source. Where a SMILES comes first, the peptide text is derived from it. Side-chain parts run from the residue outwards. [ ]: non-standard residue; d: D form. The star is where a group is joined. DOTA = O=C(O)CN1CCN(CC(=O)O)CCN(CC(=O)*)CCN(CC(=O)O)CC1; dTyr(3-I) = N[C@H](Cc1ccc(O)c(I)c1)C(=O)O; 2Nal = N[C@@H](Cc1ccc2ccccc2c1)C(=O)O; dNMeOrn = CN[C@H](CCCN)C(=O)O; 4Amb = NCc1ccc(C(=O)O)cc1; 4Abz = Nc1ccc(C(=O)O)cc1

T1 sequence (P70658 whole entry): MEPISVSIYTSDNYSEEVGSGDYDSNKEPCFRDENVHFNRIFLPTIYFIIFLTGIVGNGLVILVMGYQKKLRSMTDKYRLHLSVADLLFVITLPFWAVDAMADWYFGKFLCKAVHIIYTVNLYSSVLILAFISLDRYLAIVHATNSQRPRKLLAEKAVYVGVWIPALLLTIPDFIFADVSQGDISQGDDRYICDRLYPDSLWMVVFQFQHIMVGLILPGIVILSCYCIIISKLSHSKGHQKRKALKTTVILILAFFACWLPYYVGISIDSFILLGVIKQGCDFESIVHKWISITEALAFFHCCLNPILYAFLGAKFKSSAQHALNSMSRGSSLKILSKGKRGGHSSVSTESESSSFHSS

For `CN1C(=O)[C@@H](Cc2ccc(O)cc2)NC(=O)CNC(=O)[C@H](Cc2ccc3ccccc3c2)NC(=O)[C@H](CCCNC(=N)N)NC(=O)[C@H]1CCCNC(=O)c1ccc(CNC(=O)CN2CCN(CC(=O)O)CCN(CC(=O)O)CCN(CC(=O)O)CC2)cc1` [[^68Ga]PentixaFor, cyclo(D-Tyr^1-D-[NMe]Orn^2(AMBS-[^68Ga]DOTA)-Arg^3-Nal^4-Gly^5), metal not drawn, reference compound] (cyclo([dY][dNMeOrn]([4Amb-DOTA])R[2Nal]G)), the tissue uptake per volume at 1.5 h in data set [1] (kidney, read-out: Kidney uptake in PET) was 2.7 ± 0.1 %ID/mL; in data set [1] (liver, average ± SD per volume in ROI, read-out: Liver uptake in PET), 1.8 ± 0.1 %ID/mL; in data set [1] (tumor (Daudi xenograft), Daudi xenograft, read-out: Tumor accumulation in PET), 14.3 ± 1.2 %ID/mL. In addition, the “Time at which tumor uptake plateaus (TAC)” value in data set [2] is roughly 20 min p.i.

At murine CXCR4 (mCXCR4), “[^natLu]DOTA-r-G-ABA-iodoCPCR4 (head to tail) [natLu-complex of entry 12]” gave an IC50 of 37 ± 3 nM.

In data set [3] (setting [6]), `C[C@@H](NC(=O)[C@@H](CCCNC(=N)N)NC(=O)CN1CCN(CC(=O)O)CCN(CC(=O)O)CCN(CC(=O)O)CC1)C(=O)Nc1ccc(C(=O)NCCC[C@@H]2C(=O)N[C@@H](CCCNC(=N)N)C(=O)N[C@@H](Cc3ccc4ccccc4c3)C(=O)NCC(=O)N[C@H](Cc3ccc(O)c(I)c3)C(=O)N2C)cc1` [[^177Lu]DOTA-r-a-ABA-iodoCPCR4] [metal not drawn] (cyclo([2Nal]G[dTyr(3-I)][dNMeOrn]([4Abz-dA-dR-DOTA])R)) had a Biodistribution adrenals of 4.54 ± 1.06 %iD/g, a Biodistribution blood of 2.90 ± 0.32 %iD/g, a Biodistribution colon of 1.19 ± 0.35 %iD/g and a Biodistribution femur of 1.92 ± 0.20 %iD/g. In data set [3] (setting [6]), this compound had a Biodistribution heart of 1.87 ± 0.32 %iD/g, a Biodistribution kidney of 10.3 ± 0.26 %iD/g, a Biodistribution liver of 27.1 ± 1.87 %iD/g and a Biodistribution lung of 7.06 ± 0.67 %iD/g. In data set [3] (setting [6]), this compound displayed a Biodistribution muscle of 0.58 ± 0.07 %iD/g, a Biodistribution pancreas of 0.69 ± 0.14 %iD/g, a Biodistribution small intestine of 1.44 ± 0.22 %iD/g and a Biodistribution spleen of 6.72 ± 0.70 %iD/g. Moreover, in data set [3] (setting [6]), the Biodistribution stomach is given as 1.95 ± 0.17 %iD/g and the “Biodistribution tumor (Daudi xenograft)” value stood at 17.2±2.0 %iD/g. Further, the “Initial activity retained in the Daudi xenografts after 48h” value in data set [3] was roughly 50%. In addition, the “log PO/PBS” value in data set [4] is given as -2.8 ± 0.04. Further, the “Stable (intact tracer) in blood, urine and liver homogenates” value in data set [5] is given as greater than 99%.

“[^natLu]DOTA-k-G-ABA-iodoCPCR4 (head to tail) [natLu-complex of entry 10]”: the 50% inhibitory concentration (IC50) at murine CXCR4 (mCXCR4) was found to be 61 ± 17 nM.

In data set [3] (setting [6]), `C[C@@H](NC(=O)[C@@H](CCCNC(=N)N)NC(=O)CN1CCN(CC(=O)O)CCN(CC(=O)O)CCN(CC(=O)O)CC1)C(=O)Nc1ccc(C(=O)NCCC[C@@H]2C(=O)N[C@@H](CCCNC(=N)N)C(=O)N[C@@H](Cc3ccc4ccccc4c3)C(=O)NCC(=O)N[C@H](Cc3ccc(O)cc3)C(=O)N2C)cc1` [[^177Lu]DOTA-r-a-ABA-CPCR4] [metal not drawn] (cyclo([2Nal]G[dY][dNMeOrn]([4Abz-dA-dR-DOTA])R)) displayed a Biodistribution adrenals of 1.16 ± 0.18 %iD/g, a Biodistribution blood of 1.50 ± 0.10 %iD/g, a Biodistribution colon of 0.78 ± 0.28 %iD/g and a Biodistribution femur of 0.86 ± 0.04 %iD/g. In data set [3] (setting [6]), this compound yielded a Biodistribution heart of 0.90 ± 0.07 %iD/g, a Biodistribution kidney of 9.74 ± 0.91 %iD/g, a Biodistribution liver of 11.9 ± 1.57 %iD/g and a Biodistribution lung of 3.53 ± 1.20 %iD/g. Besides, in data set [3] (setting [6]), the Biodistribution muscle worked out at 0.28 ± 0.02 %iD/g, the Biodistribution small intestine was found to be 1.23 ± 0.18 %iD/g, the Biodistribution spleen came out at 2.41 ± 0.34 %iD/g and the Biodistribution stomach is 1.72 ± 0.16 %iD/g. The “Biodistribution tumor (Daudi xenograft)” value in data set [3] (setting [6]) stood at 18.3±3.7 %iD/g. Also, the “Initial activity retained in the Daudi xenografts after 48h” value in data set [3] is listed as roughly 50%. In addition, the “log PO/PBS” value in data set [4] is given as -3.0 ± 0.13. Besides, the “Stable (intact tracer) in blood, urine and liver homogenates” value in data set [5] is greater than 99%.
